Measurements taken from article PMC12040169 (PLOS Biology, 2025).

Assay: in vitro
Conditions: human, hela cells, % viability

SMILES	viability at 28.5 h, 10 µM [%]
Cn1ccc(C(=O)N2CCC[C@H](C(=O)c3ccc(F)cc3)C2)n1 [CBK284333]	88.3
Cc1noc(C)c1C(=O)N1CCC[C@H](C(=O)c2ccc(F)cc2)C1 [CBK284334]	81.7
CC(C)C(=O)N[C@@H](C)Cn1nc(-c2cccs2)oc1=O [CBK284335]	88.3
CC(C)CC(=O)N[C@@H](C)Cn1nc(-c2cccs2)oc1=O [CBK284336]	82.4
C[C@@H](Cn1nc(-c2cccs2)oc1=O)NC(=O)C1CCCC1 [CBK284337]	86.5
O=C(NC1CCCCC1)[C@@H]1C=CCN1C(=O)c1cccs1 [CBK284338]	95.8
O=C1Nc2c(cnn2-c2ccc(Cl)cc2)C2=NCCN12 [CBK284341]	93.1
Cc1ccc(-n2ncc3c2NC(=O)N2CCN=C32)cc1 [CBK284345]	85.5
O=C(c1ccccc1F)N1CCC(n2c(=O)oc3ccccc32)CC1 [CBK284346]	90.1
O=C(c1ccco1)N1CCC(n2c(=O)oc3ccccc32)CC1 [CBK284350]	92.8
CC(C)NC(=O)C1CC2CCC1CC21NC(=O)c2ccccc2O1 (stereo not shown) [CBK284353]	83.5
Cc1cc(C(=O)N2C[C@H]3CC[C@](O)(c4ccc(F)cc4)[C@H]3C2)on1 [CBK284354]	92.4
O=C(c1cc(F)cc(F)c1)N1CCC(O)(c2cccnc2F)CC1 [CBK284361]	92.7
O=C(Cc1cccc(F)c1)N1CCC(O)(c2cccnc2F)CC1 [CBK284362]	90.5
Cc1cc(-c2cc(=O)n(Cc3ccc(F)cc3)nc2C2CC2)on1 [CBK284364]	98.2
Cc1cc(-c2cc(=O)n(Cc3ccccc3)nc2C2CC2)on1 [CBK284365]	86.2
OC1(c2cccnc2F)CCN(Cc2ccc(F)cc2F)CC1 [CBK284369]	82.6
OC1(c2cccnc2F)CCN(Cc2ccc(F)c(F)c2)CC1 [CBK284370]	90
OC1(c2cccnc2F)CCN(Cc2cc(F)ccc2F)CC1 [CBK284371]	83.6
OC1(c2cccnc2F)CCN(Cc2cccc(F)c2)CC1 [CBK284373]	85.5
CCn1cncc1CN1CC2CCCC(O)(c3ccc(C)cc3)C2C1 (stereo not shown) [CBK284374]	90
Cc1cc2ncc3c(n2n1)CC1CCC3N1Cc1ccc(F)c(F)c1 (stereo not shown) [CBK284378]	90.9
Cc1cc2ncc3c(n2n1)CC1CCC3N1C(=O)CCc1ccco1 (stereo not shown) [CBK284380]	78.2

SMILES	viability at 28.5 h, 10 µM [%]
CCC(=O)N1C2CCC1c1cnc3cc(-c4ccco4)nn3c1C2 (stereo not shown) [CBK284384]	92.7
O=C(CN1C(=O)N2CCCN=C2c2ccc(Cl)cc21)N1CCCC1 [CBK284387]	78.7
O=C(CN1C(=O)N2CCCN=C2c2ccc(Cl)cc21)NC1CC1 [CBK284388]	89
CCCNC(=O)CN1C(=O)N2CCCN=C2c2ccc(Cl)cc21 [CBK284389]	82.8
CC(C)NC(=O)CN1C(=O)N2CCCN=C2c2ccc(Cl)cc21 [CBK284390]	96.5
O=C(CN1C(=O)N2CCCN=C2c2ccccc21)NC1CCCCC1 [CBK284396]	88.8
O=C(CN1C(=O)N2CCCN=C2c2ccccc21)N1CCCCCC1 [CBK284399]	96.4
CCOC(=O)CN1C(=O)N2CCCN=C2c2ccc(Cl)cc21 [CBK284401]	77.8
COC(=O)CN1C(=O)N2CCCN=C2c2ccc(Cl)cc21 [CBK284402]	89.8
CCCNC(=O)CN1C(=O)N2CCCN=C2c2ccccc21 [CBK284405]	86
Cc1nc2c(c(=O)[nH]1)CC[C@@H]1CN(C(=O)c3cccs3)C[C@H]21 [CBK284406]	88.7
Cc1nc2c(c(=O)[nH]1)CC[C@@H]1CN(C(=O)c3occ4ccccc34)C[C@H]21 [CBK284408]	101
Cc1nc2c(c(=O)[nH]1)CC[C@@H]1CN(C(=O)c3ccccc3F)C[C@H]21 [CBK284410]	92.7
Cc1cc2ncc3c(n2n1)CC1CCC3N1Cc1ccc(C)o1 (stereo not shown) [CBK284412]	88.9
Cc1nc2c(c(=O)[nH]1)CC[C@@H]1CN(C(=O)Cc3cccc(F)c3)C[C@H]21 [CBK284413]	80.4
Cc1cc2ncc3c(n2n1)CC1CCC3N1C(=O)c1cccs1 (stereo not shown) [CBK284415]	103
Cc1ccc(-n2ncc3c2NC(=O)N2CCCN=C32)cc1 [CBK284416]	110
Cc1nc2c(c(=O)[nH]1)CC[C@@H]1CN(C(=O)c3cc(F)cc(F)c3)C[C@H]21 [CBK284418]	101
O=C(CN1C(=O)N2CCCN=C2c2ccccc21)N1CCCC1 [CBK284419]	88.4
O=C(C1CCCC1)N1C2CCC1CC(O)(c1cccnc1F)C2 (stereo not shown) [CBK284421]	88.4
O=C(c1cccc(F)c1)N1C2CCC1CC(O)(c1cccnc1F)C2 (stereo not shown) [CBK284422]	104
Cc1ccc(C(=O)N2C3CCC2CC(O)(c2cccnc2F)C3)o1 (stereo not shown) [CBK284423]	104
Cn1nccc1C(=O)C1CCN(C(=O)c2cccs2)CC1 [CBK284424]	95.1

SMILES	viability at 28.5 h, 10 µM [%]
Cn1nccc1C(=O)C1CCN(C(=O)c2ccccc2F)CC1 [CBK284425]	94.5
Cc1cc(C(=O)N2CCC(C(=O)c3ccnn3C)CC2)sc1C [CBK284428]	89.3
c1ccc2c3c([nH]c2c1)C12CCN(CC1)C(C1CCOC1)N2CC3 (stereo not shown) [CBK284433]	88.2
c1ccc2c3c([nH]c2c1)C12CCN(CC1)C(c1ccncc1)N2CC3 (stereo not shown) [CBK284434]	88.5
Cc1cccc(C2N3CCC4(CC3)c3[nH]c5ccccc5c3CCN24)n1 (stereo not shown) [CBK284435]	90.5
Fc1ccc2[nH]c3c(c2c1)CCN1C(c2cccnc2)N2CCC31CC2 (stereo not shown) [CBK284436]	87.6
Fc1ccc2[nH]c3c(c2c1)CCN1C(c2ccncc2)N2CCC31CC2 (stereo not shown) [CBK284437]	78.6
O=C1NC2(CCC(=O)N(Cc3ccccc3)CC2)Oc2ccccc21 (stereo not shown) [CBK284438]	91.6
CC(C)NC(=O)C1CC2CCC1(C)C[C@]21NC(=O)c2ccccc2N1 (stereo partly shown) [CBK284444]	88.7
CC12CCC(CC1C(=O)NC1CC1)[C@]1(C2)NC(=O)c2ccccc2N1 (stereo partly shown) [CBK284445]	92.2
O=C1NC2(CC3CCC2N3Cc2ccco2)Nc2ccccc21 (stereo not shown) [CBK284446]	91.8
CC(=O)N1CC2(CCN(C(=O)c3ccco3)CC2)Nc2ccccc21 [CBK284447]	95.5
O=C(C1CC1)N1C2CCC1Cn1c(nc3ccccc3c1=O)C2 (stereo not shown) [CBK284451]	92.2
O=C1N[C@@]2(CC3CCC2CC3C(=O)NC2CC2)Nc2ccccc21 (stereo partly shown) [CBK284454]	85.9
CN1CCC2(CCC1=O)CC(N)c1ccccc1O2 (stereo not shown) [CBK284456]	103
Cc1cnn(CC(=O)N2CCC(c3cc4ncccc4[nH]3)CC2)c1 [CBK284458]	77.2
CN(C)c1ccc(C(=O)N2CCC(c3cc4ncccc4[nH]3)CC2)cc1 [CBK284459]	93.3
Cc1cc(-c2ccc(=O)n(C3CCN(C(=O)C4CC4)CC3)n2)c(C)o1 [CBK284462]	87.2
CC(C)(C)OC(=O)N1CCCC2(CCCN(C(=O)c3ccco3)C2)C1 (stereo not shown) [CBK284463]	94.7
COc1ccccc1CC(=O)N1CCC(c2onc3c2CCC3)CC1 [CBK284464]	99.2
CC1CCc2nn(CCNC(=O)Cc3cccs3)c(=O)cc2C1 (stereo not shown) [CBK284465]	88.8
O=C1CCN(C(=O)c2ccccn2)CCN1Cc1cccc(F)c1 [CBK284467]	90.5
Cc1ccc2c(c1)C(=O)CC1(CC3CCC1N3C(=O)C(C)C)O2 (stereo not shown) [CBK284468]	87.1

SMILES	viability at 28.5 h, 10 µM [%]
CN1C(=O)C(C)(C)Oc2ccc(C(O)c3ccco3)cc21 (stereo not shown) [CBK284469]	89.8
COc1cc2c(cc1OC)C1c3ccccc3NC(=O)N1CC2 (stereo not shown) [CBK284471]	88
Cc1ccc2c(c1)oc(=O)n2CCNC(=O)c1cccs1 [CBK284472]	99.9
Cc1c(CN2CCCC(n3cnc4cc(F)ccc43)C2)cnn1C (stereo not shown) [CBK284478]	89.9
CC1CCc2nn(CCNC(=O)Cc3ccc(F)cc3)c(=O)cc2C1 (stereo not shown) [CBK284485]	92.5
O=C(c1ccco1)N1CCC(c2onc3c2CCCCC3)CC1 [CBK284486]	91
O=C(C1CCCO1)N1CCC(c2onc3c2CCCCC3)CC1 (stereo not shown) [CBK284487]	98.4
Cc1ccc(C2Nc3ccccc3C3=NCCCN32)o1 (stereo not shown) [CBK284488]	103
CC(=O)Nc1nc(-c2cccs2)c(-c2cc(C)no2)s1 [CBK284493]	98.9
COc1ccc(-n2ncc3c2CCCN(C(=O)C2CC2)C3)cc1 [CBK284498]	84.3
Cc1ccc(CC(=O)N2CCc3nn(C(C)C)c(=O)cc3C2)cc1 [CBK284499]	93.6
Cc1cc(-c2cc3nc(C)c(C)c(O)n3n2)c(C)o1 [CBK284500]	90.4
COc1ccc(-n2ncc3c2CCCN(C(=O)C2CCCC2)C3)cc1 [CBK284501]	78
O=C(O)c1ccc(-n2ccnc2)c(C#Cc2ccccc2)c1 [CBK284502]	89.5
O=C(C1CC1)N1CCC2(CC1)Nc1cccnc1-n1cccc12 [CBK284504]	107
O=C(c1ccco1)N1CCC2(CC1)Nc1cccnc1-n1cccc12 [CBK284506]	85.3
CCC(CC)C(=O)N1CCC2(CC1)Nc1cccnc1-n1cccc12 [CBK284508]	80.7
Cn1cccc1C1(O)CCCC2CN(C(=O)c3ccco3)CC21 (stereo not shown) [CBK284509]	99.9
OC1(c2cccnc2)CCCC2CN(Cc3ccc(F)c(F)c3)CC21 (stereo not shown) [CBK284511]	101
OC1(c2cccnc2)CCCC2CN(Cc3c(F)cccc3F)CC21 (stereo not shown) [CBK284512]	114
OC1(c2cccnc2)CCCC2CN(Cc3cc(F)ccc3F)CC21 (stereo not shown) [CBK284513]	103
N=C1OC2CSCC2N1C(=O)Cc1ccc(F)cc1 (stereo not shown) [CBK284515]	103
